{"source": "paper PMC11579541", "about": "“In vitro, in vivo, and in silico approaches for evaluating the preclinical DMPK profiles of ammoxetine, a novel chiral serotonin and norepinephrine reuptake inhibitor” (Frontiers in Pharmacology, 2024)", "key": {"MTT cytotoxicity assay": {"test": "MTT cytotoxicity assay", "format": "cell-based, canine", "settings": "dog, MDCK-MDR1 cells; 0–20 μg/mL, 3 h; read-out: cellular inhibition rate", "protocol": "(§1) MDCK-MDR1 cells at passage 17 were cultured in DMEM supplemented with 10% FBS, 1% glutamine, 100 U/mL penicillin/streptomycin, 1% NEAA, and 1 mmol/L sodium pyruvate. The cells were incubated overnight at 37°C with 5% CO2 and a relative humidity of 90%. Once the cells reached approximately 80% confluence, they were treated with a 0.25% trypsin/EDTA solution to dissociate the cells. Subsequently, the cells were seeded at a density of 5 × 10^5 cells/cm^2 in Millicell-96 well plates (Millipore, Burlington, USA). Prior to conducting the experiments, the integrity of the cell monolayer was confirmed by measuring transepithelial electrical resistance (TEER) using a Millicell ERS® meter (Millipore, Burlington, USA). A TEER value greater than 400 Ω cm^2 was required to ensure the formation and preservation of tight junctions.\n(§2) The ability of ammoxetine to inhibit the growth of MDCK-MDR1 cells was evaluated using the MTT assay. Ammoxetine was diluted with transport buffer [Hank’s balanced salt solution (HBSS) containing 6.0 g HEPES, pH 7.2–7.4] from a stock solution (2 mg/mL) dissolved in HBSS to create a series of standard concentrations: 1.28, 6.4, 32, 160, 800 ng/mL and 4, 20, 100, 500 μg/mL. Prior to the assay, the cell culture medium was aspirated and replaced with different standard concentrations of ammoxetine (100 μL/well, n = 6). The cells were then incubated at 37°C for 3 h. Following the incubation, 20 μL of MTT solution (5 mg/mL) was added to each well, and the incubation was continued for 4 h. Subsequently, the solution in each well was discarded, and 150 μL of dimethyl sulfoxide was added. After vortexing for 10 min, the absorbance was measured at 570 nm using a Varioskan® Flash multimode reader (Thermo Fisher Scientific, Waltham, USA). Blank control solutions, consisting of HBSS without ammoxetine, were also applied to the cells. The absorbance values were then used to calculate the relative growth rate (RGR, %) of cells using the formula RGR = ODammoxetine/ODblank × 100%, where ODammoxetine and ODblank represent the mean absorbance values of six parallel measurements in the ammoxetine and blank control solutions, respectively ([Ji et al., 2024]). The Prism 5 software (GraphPad Software, Inc., San Diego, USA) was used to determine the 50% toxic concentration (TC50) value of ammoxetine."}, "MDCK-MDR1 cells": {"test_system": "MDCK-MDR1 cells", "test": "MTT cytotoxicity assay", "format": "cell-based, canine", "protocol": "as §1, §2"}, "CYP 2C9": {"target": "CYP 2C9 (Homo sapiens, UniProt P11712)", "sequence (P11712 whole entry)": "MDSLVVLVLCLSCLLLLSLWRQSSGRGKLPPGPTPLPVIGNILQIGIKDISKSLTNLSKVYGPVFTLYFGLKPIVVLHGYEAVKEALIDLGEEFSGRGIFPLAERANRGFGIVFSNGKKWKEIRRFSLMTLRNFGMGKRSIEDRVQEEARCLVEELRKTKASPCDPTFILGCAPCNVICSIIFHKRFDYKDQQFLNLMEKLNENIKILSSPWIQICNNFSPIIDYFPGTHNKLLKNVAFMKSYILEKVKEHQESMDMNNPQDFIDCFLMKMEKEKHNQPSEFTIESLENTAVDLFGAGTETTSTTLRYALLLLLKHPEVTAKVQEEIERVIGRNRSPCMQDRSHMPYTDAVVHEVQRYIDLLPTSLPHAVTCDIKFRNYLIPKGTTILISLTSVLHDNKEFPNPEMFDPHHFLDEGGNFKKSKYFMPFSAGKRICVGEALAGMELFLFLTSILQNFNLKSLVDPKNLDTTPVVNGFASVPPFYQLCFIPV", "test": "Phenotyping with recombinant human CYP 2C9", "format": "in vitro ADME", "set-up": "purchased BD (Woburn, USA)", "settings": "5 μmol/L, 25 pmol/mL CYP, 1 h", "protocol": "(§3) Ammoxetine (final concentration 5 μmol/L) was incubated with recombinant human CYP 3A4, CYP 1A2, CYP 2C9, CYP 2C19, and CYP 2D6 (final concentration 25 pmol/mL) in a 5 mmol/L K2HPO4 buffer at pH 7.4. The incubations were performed in quintuplicate. NADPH (final concentration 1 mmol/L) was added to initiate the incubation process. The mixture was then incubated at 37°C for 1 h. To stop the reaction, 200 μL of ice-cold acetonitrile/methanol (1:1, v/v) containing 500 ng/mL of L-phencynonate (IS) was added. The samples were vortexed for 2 min and centrifuged at 13,800×g and 4°C for 10 min. The supernatants obtained were analyzed using an LC-MS-MS method. To establish appropriate controls, zero-time controls and blank controls in the absence of NADPH were set up in parallel."}, "CYP 2D6": {"target": "CYP 2D6 (Homo sapiens, UniProt P10635)", "sequence (P10635 whole entry)": "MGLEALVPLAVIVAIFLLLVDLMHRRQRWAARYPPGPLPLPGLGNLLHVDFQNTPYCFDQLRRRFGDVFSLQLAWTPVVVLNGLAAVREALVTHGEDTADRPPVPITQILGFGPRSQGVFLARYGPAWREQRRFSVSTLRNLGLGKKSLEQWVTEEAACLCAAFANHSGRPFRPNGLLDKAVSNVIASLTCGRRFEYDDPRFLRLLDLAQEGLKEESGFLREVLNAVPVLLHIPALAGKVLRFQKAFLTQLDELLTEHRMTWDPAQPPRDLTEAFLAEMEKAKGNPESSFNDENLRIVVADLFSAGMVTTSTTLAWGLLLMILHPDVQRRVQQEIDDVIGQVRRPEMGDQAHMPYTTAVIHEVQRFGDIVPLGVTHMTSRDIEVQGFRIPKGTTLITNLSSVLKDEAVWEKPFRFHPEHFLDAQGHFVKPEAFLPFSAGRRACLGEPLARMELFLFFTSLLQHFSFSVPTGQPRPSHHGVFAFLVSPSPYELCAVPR", "test": "Phenotyping with recombinant human CYP 2D6", "format": "in vitro ADME", "set-up": "purchased BD (Woburn, USA)", "settings": "5 μmol/L, 25 pmol/mL CYP, 1 h", "protocol": "as §3"}}, "data": [{"smiles": "CNCC[C@H](Oc1cccc2c1OCO2)c1cccs1", "note": "[ammoxetine]", "values": [{"measurement": "inhibition at 3 h", "setting": "MTT cytotoxicity assay", "value": "< 10", "unit": "%"}, {"measurement": "RGR (%)", "setting": "MDCK-MDR1 cells; 0.16 μg/mL", "value": "103.48±9.43", "unit": "%"}, {"measurement": "RGR (%)", "setting": "MDCK-MDR1 cells; 0.80 μg/mL", "value": "102.55±18.09", "unit": "%"}, {"measurement": "RGR (%)", "setting": "MDCK-MDR1 cells; 4 μg/mL", "value": "103.59±20.82", "unit": "%"}, {"measurement": "RGR (%)", "setting": "MDCK-MDR1 cells; 20 μg/mL", "value": "89.16±12.89", "unit": "%"}, {"measurement": "RGR (%)", "setting": "MDCK-MDR1 cells; 100 μg/mL", "value": "55.53±7.87", "unit": "%"}, {"measurement": "RGR (%)", "setting": "MDCK-MDR1 cells; 500 μg/mL", "value": "24.49±2.36", "unit": "%"}, {"measurement": "RGR (%)", "setting": "MDCK-MDR1 cells; 1.28×e-3 μg/mL", "value": "113.13±22.65", "unit": "%"}, {"measurement": "RGR (%)", "setting": "MDCK-MDR1 cells; 3.20×e-2 μg/mL", "value": "103.57±14.18", "unit": "%"}, {"measurement": "RGR (%)", "setting": "MDCK-MDR1 cells; 6.40×e-3 μg/mL", "value": "114.88±14.68", "unit": "%"}, {"measurement": "TC50", "setting": "MDCK-MDR1 cells; 50% toxic concentration from ln concentration-RGR curve", "value": "79.76 ± 18.94", "unit": "µg/mL"}, {"measurement": "Transformation ratio%", "setting": "CYP 2C9", "value": "13.02±7.14", "unit": "%"}, {"measurement": "residuary concentration of ammoxetine, Mean±SD", "setting": "CYP 2C9", "value": "5.96±0.49"}, {"measurement": "Transformation ratio%", "setting": "CYP 2D6", "value": "14.09±1.89", "unit": "%"}, {"measurement": "residuary concentration of ammoxetine, Mean±SD", "setting": "CYP 2D6", "value": "5.89±0.13"}]}]}
